In US20020028472A1, “Methods for identifying inhibitors of the anaphase promoting complex” (priority 2000, published 2002):

Biological target: T1, APC11 fused to Maltose Binding Protein (MBP-APC11) (Homo sapiens, UniProt Q9NYG5)
T1 construct: obtained by inserting the APC11 coding region into the commercially available vector pMAL, New England Biolabs; made in house; host or cells: E. coli, grown with 1 mM ZnCl2; purified on amylose resin
Test: FRET assay of APC11-mediated formation of multiubiquitin chains
Format: biochemical
Conditions: DTT titrated 0 to 30 mM; 60 min at 37° C.; E1 UBA1, E2 HIS-UBCH5b; FRET europium/allophycocyanin

T1 sequence (Q9NYG5 whole entry, the tested form may be a part): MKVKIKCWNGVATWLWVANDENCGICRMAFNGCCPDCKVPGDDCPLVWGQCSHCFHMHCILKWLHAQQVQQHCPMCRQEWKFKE

**Q.** With `O[C@H](CS)[C@H](O)CS` (racemic) [DTT, dithiothreitol] as the molecule, how does the “inhibition of the APC11-mediated formation of multiubiquitin chains” value read?
**A.** Its value is “inhibition”.
